Reference: patent publication US20260265244A1, “HETEROCYCLIC COMPOUNDS AS STING ANTAGONISTS” (Boehringer Ingelheim International GmbH, priority 2022, published 2026)

Experiments:
[1] = molecular target: T1, cGAMP binding domain of wild-type (GRR) human STING, residues 155-341 (Homo sapiens, UniProt Q86WV6, H232R); assay: Increase of stability of STING protein against thermal denaturation, Differential Scanning Fluorimetry (DSF)
T1 construct: His-TEV-hSTING (WT); TEV protease cleavage site (N); made in house; host or cells: E. coli BL21 DE3
T1 sequence (Q86WV6 with tags, fused parts or gaps H232R): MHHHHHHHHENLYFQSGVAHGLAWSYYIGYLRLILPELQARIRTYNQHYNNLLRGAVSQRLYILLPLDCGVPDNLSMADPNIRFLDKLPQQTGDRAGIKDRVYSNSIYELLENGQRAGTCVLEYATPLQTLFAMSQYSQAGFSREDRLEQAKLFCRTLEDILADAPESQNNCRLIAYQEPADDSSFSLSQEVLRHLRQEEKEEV
Procedure: Dye fluorescence is quenched in aqueous environment and increases upon association of the dye with the hydrophobic parts of the unfolding protein. […] The inflection point of the curve represents the “melting” temperature of the protein (Tm) which is calculated numerically using the Boltzmann equation.
Method: The thermal stability of the STING protein was measured using a specific expression construct of the cGAMP binding domain of wild-type (GRR) human STING comprising residues 155-341 and a N-terminal 8×His-tag (SEQ ID NO: 3) in assay buffer containing 20 mM Tris, 150 mM NaCl at pH7.5.
The assay uses Hard-Shell® PCR Plates 384-Well CLR/WHT (Catalog #HSP3805, BIO-RAD), Microseal® ‘B’ Adhesive Seals for PCR Plates (Catalog #MSB-1001, BIO-RAD) and was run on a CFX384 Real-Time System (Bio-Rad).
A DMSO stock solution of SYPRO orange (SIGMA S5692-500UL) was prepared.
Compound stock solutions (10 mM in DMSO) were diluted 1:2 in DMSO to an intermediate compound concentration of 5 mM and then further diluted 1:40 in assay buffer resulting in a compound concentration of 125 μM and 2.5% DMSO.
Fluorescent dye stock solution (5000×SYPRO Orange) was then mixed with target protein and buffer to a concentration of 15 uM Protein and 25×SYPRO Orange. 2 ul of this protein-dye-mixture was added to 8 ul compound solution. Final volume was 10 uL. 3-6 well positions were used as negative control (protein with 2% DMSO). The plates were prepared for duplicate measurement and centrifuged for 2 min at 1000 g. In the measurement, 160 cycles of 0.5° C. were used (temperature ramp 15 s/cycle, 15° C. to 95° C.).
Final Assay concentrations for compound characterization were as follows: 100 uM compound, 3 uM target protein, 5×SYPRO Orange, 2% DMSO in 10 ul. All dispensing steps were performed using a HamiltonStar pipetting robot (Hamilton).
Dissociation curves were processed in Bio-Rad CFX Manager. Peak type was set to “negative”. Compound codes for screen were assigned in the plate layout.
Two replicates of TM measurements were averaged, and the standard deviation was calculated. In cases of SD>1.5° C. the measurement was repeated.
The melting point (Tm) obtained for STING protein alone was subtracted from T obtained for protein incubated with ligand to generate ΔTm values.
Protein production and purification: The protein used for the biophysical experiments was a recombinant human STING protein comprising its cytosolic ectodomain. A codon optimized DNA sequence (for expression in Escherichia coli) encoding amino acid residues 155 to 341 (Swiss Prot Q86WV6) of human STING (WT) was synthesized by GeneArt (Regensburg, Germany) and inserted into a pET17b E. coli expression vector. The protein construct encodes an N-terminal 8×His-tag (SEQ ID NO: 3) followed by tobacco etch virus protease (TEV) cleavage site and the above STING gene sequence. The resulting protein sequence for the used STING variant is listed below:
For expression of recombinant human STING above construct was transformed into E. coli BL21 DE3 strain and grown in shake flasks in LB-medium at 37° C. Expression was induced by addition of isopropyl β-D-1-thiogalactopyranoside to a final concentration of 1 mM and cultures shaken overnight. Cell pellets were centrifuged and stored at −70° C. until further use. Protein was purified by cell thawing in lysis buffer (20 mM TRIS-HCl, pH 8, 300 mM NaCl, 2 mM mercaptoethanol, 20 mM imidazole, Complete Protease Inhibitor (Roche) and DNase (Roche)), followed by metal affinity purification using Ni-NTA resins and elution buffer consisting of 20 mM TRIS-HCl, pH 8, 300 mM NaCl, 2 mM mercaptoethanol, 300 mM imidazole and size exclusion chromatography in running buffer (20 mM TRIS-HCl, pH 8, 100 mM NaCl, 2 mM DTT). The peak fraction was collected and concentrated to 2.5 mg/mL.

human STING WT (R232) = molecular target: T2, human STING WT (R232) (Homo sapiens, UniProt Q86WV6, H232R); assay: Human STING HTRF binding assay (competitive, Cisbio 64BDSTGPEG)
T2 construct: purchased Cisbio 64BDSTGPEG
T2 sequence (Q86WV6 138-379 H232R): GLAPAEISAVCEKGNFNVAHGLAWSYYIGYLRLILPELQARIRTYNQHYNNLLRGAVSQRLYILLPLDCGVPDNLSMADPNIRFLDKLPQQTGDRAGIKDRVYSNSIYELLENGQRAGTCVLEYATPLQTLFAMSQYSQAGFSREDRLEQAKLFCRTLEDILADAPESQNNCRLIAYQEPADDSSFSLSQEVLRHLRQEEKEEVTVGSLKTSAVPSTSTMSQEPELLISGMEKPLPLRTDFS
Procedure: Binders to human STING WT (R232) were identified using a competitive HTRF assay format (Cisbio 64BDSTGPEG), which uses d2-labeled STING ligand, a 6His (SEQ ID NO: 2) tagged human STING protein, and an anti 6His (SEQ ID NO: 2) Cryptate-labeled antibody. Compounds compete with the STING ligand-d2 and thereby prevents FRET from occurring, which can be measured by an EnVision™ reader (PerkinElmer).
Assay method: Compounds were delivered as 10 mM DMSO solution, serially diluted by an Agilent Bravo Workstation and transferred to the 384 well assay plate (Perkin Elmer #6005359) using a Cybiwell dispenser. Typically, 8 concentrations were used with the highest concentration at 10 μM or 1 μM in the final assay volume followed by ~1:5 dilution steps. DMSO concentration was set to 1% in the final assay volume. The 384 well assay plate contained 20 test compounds and DMSO in column 23 and 24. A cGAMP standard dilution row was prepared according to the manufacturer and transferred to each assay plate. After transfer of compound solution or dilution buffer for negative (high) and positive (low) controls, 5 μl of the human STING protein (cyclic binding domain (residues 138-379) of the WT R232 human version, fused to a 6 His tag (SEQ ID NO: 2) at the Nter part; 1:50 dilution in detection buffer) were dispensed to all wells except of the positive control, which received detection buffer only. Plates were the centrifuged for 20 sec at 1000 rpm. After that, 10 μl of Anti-6His-Cryptate antibody/Sting ligand-d2 mix was added to all wells using a Multidrop combi dispenser, followed by another sec/1000 rpm centrifugation step. After an incubation of the plates for 180 min at room temperature, […] at […] (HTRF ratio) was measured using an Envison Reader (PerkinElmer).
Data evaluation and calculation: For data evaluation and calculation, HTRF ratios were calibrated using the cGAMP standard curve. After that, the measurement of the low control was set as 0% control and the measurement of the high control was set as 100% control. The IC50 values were calculated using the standard 4 parameter logistic regression formula. Calculation: [y=(a−d)/(1+(x/c)^b)+d], a=low value, d=high value; x=conc M; c=IC50 M; b=slope;

| DSF [1] [K] | IC50 (human STING WT (R232)) [nM] | Compound |
| --- | --- | --- |
| 26 | 12.1 | Cc1nc2nn(CCN3CCOCC3)cc2cc1-n1nc(-c2cccc3nn(C[C@H](O)c4ccccc4)cc23)c(C(C)C)c1C [Example 1, (1R)-2-[4-(5-methyl-1-{6-methyl-2-[2-(morpholin-4-yl)ethyl]-2H-pyrazolo[3,4-b]pyridin-5-yl}-4-(propan-2-yl)-1H-pyrazol-3-yl)-2H-indazol-2-yl]-1-phenylethan-1-ol] |
| 28 | 15.8 | Cc1nc2nn(CCCC#N)cc2cc1-n1nc(-c2cccc3nn(C[C@H](O)c4ccccc4)cc23)c(C(C)C)c1C [Example 2, 4-[5-(3-{2-[(2R)-2-hydroxy-2-phenylethyl]-2H-indazol-4-yl}-5-methyl-4-(propan-2-yl)-1H-pyrazol-1-yl)-6-methyl-2H-pyrazolo[3,4-b]pyridin-2-yl]butanenitrile] |
| 29 | 14.2 | Cc1nc2nn(Cc3cccnc3)cc2cc1-n1nc(-c2cccc3nn(C[C@H](O)c4ccccc4)cc23)c(C(C)C)c1C [Example 6, (1R)-2-[4-(5-methyl-1-{6-methyl-2-[(pyridin-3-yl)methyl]-2H-pyrazolo[3,4-b]pyridin-5-yl}-4-(propan-2-yl)-1H-pyrazol-3-yl)-2H-indazol-2-yl]-1-phenylethan-1-ol] |
| 25 | 24.6 | Cc1nc2nn(CCCN3CCN(C)CC3)cc2cc1-n1nc(-c2cccc3nn(C[C@H](O)c4ccccc4)cc23)c(C(C)C)c1C [Example 7, (1R)-2-[4-(5-methyl-1-{6-methyl-2-[3-(4-methylpiperazin-1-yl)propyl]-2H-pyrazolo[3,4-b]pyridin-5-yl}-4-(propan-2-yl)-1H-pyrazol-3-yl)-2H-indazol-2-yl]-1-phenylethan-1-ol] |
| 24 | 14.6 | Cc1nc2nn(C)cc2cc1-n1nc(-c2cccc3nn(C[C@H](OCCO)c4ccccc4)cc23)c(C(C)C)c1C [Example 8, 2-[(1R)-2-[4-(1-{2,6-dimethyl-2H-pyrazolo[3,4-b]pyridin-5-yl}-5-methyl-4-(propan-2-yl)-1H-pyrazol-3-yl)-2H-indazol-2-yl]-1-phenylethoxy]ethan-1-ol] |
| 33 | 14.1 | COc1ccc(Cn2cc3cc(-c4nc(-c5cccc6nn(C[C@H](O)c7ccccc7)cc56)c(C5CC5)n4C)c(C4CC4)nc3n2)cc1 [Example 9, (1R)-2-[4-(5-cyclopropyl-2-{6-cyclopropyl-2-[(4-methoxyphenyl)methyl]-2H-pyrazolo[3,4-b]pyridin-5-yl}-1-methyl-1H-imidazol-4-yl)-2H-indazol-2-yl]-1-phenylethan-1-ol] |
| 30 | 9.3 | Cn1c(-c2cc3cn(CCN4CCOCC4)nc3nc2C2CC2)nc(-c2cccc3nn(C[C@H](O)c4ccccc4)cc23)c1C1CC1 [Example 10, (1R)-2-[4-(5-cyclopropyl-2-{6-cyclopropyl-2-[2-(morpholin-4-yl)ethyl]-2H-pyrazolo[3,4-b]pyridin-5-yl}-1-methyl-1H-imidazol-4-yl)-2H-indazol-2-yl]-1-phenylethan-1-ol] |
| 29 | 4.4 | Cc1nc2nn(CCCCO)cc2cc1-n1nc(-c2cccc3nn(C[C@H](O)c4ccccc4)cc23)c(C(C)C)c1C [Example 12, 4-[5-(3-{2-[(2R)-2-hydroxy-2-phenylethyl]-2H-indazol-4-yl}-5-methyl-4-(propan-2-yl)-1H-pyrazol-1-yl)-6-methyl-2H-pyrazolo[3,4-b]pyridin-2-yl]butan-1-ol] |
| 30 | 17.5 | Cc1c(C(C)C)c(-c2cccc3nn(C[C@H](O)c4ccccc4)cc23)nn1-c1cc2cn(C)nc2nc1C1CCCO1 (stereo partly drawn) [Example 13, (1R)-2-(4-{5-methyl-1-[2-methyl-6-(oxolan-2-yl)-2H-pyrazolo[3,4-b]pyridin-5-yl]-4-(propan-2-yl)-1H-pyrazol-3-yl}-2H-indazol-2-yl)-1-phenylethan-1-ol] |
| 28 | 9.1 | Cc1nc2nn(C3CCOC3)cc2cc1-n1nc(-c2cccc3nn(C[C@H](O)c4ccccc4)cc23)c(C(C)C)c1C (stereo partly drawn) [Example 14, (1R)-2-(4-{5-methyl-1-[6-methyl-2-(oxolan-3-yl)-2H-pyrazolo[3,4-b]pyridin-5-yl]-4-(propan-2-yl)-1H-pyrazol-3-yl}-2H-indazol-2-yl)-1-phenylethan-1-ol] |
| 30 | 19.1 | Cc1c(C(C)C)c(-c2cccc3nn(C[C@H](O)c4ccc(OCCN5CCOCC5)cc4)cc23)nn1-c1cc2cn(C)nc2nc1C1CC1 [Example 15, (1R)-2-[4-(1-{6-cyclopropyl-2-methyl-2H-pyrazolo[3,4-b]pyridin-5-yl}-5-methyl-4-(propan-2-yl)-1H-pyrazol-3-yl)-2H-indazol-2-yl]-1-{4-[2-(morpholin-4-yl)ethoxy]phenyl}ethan-1-ol] |
| 28 | 6.6 | COCCn1cc2cc(-n3nc(-c4cccc5nn(C[C@H](O)c6ccccc6)cc45)c(C(C)C)c3C)c(C)nc2n1 [Example 16, (1R)-2-(4-{1-[2-(2-methoxyethyl)-6-methyl-2H-pyrazolo[3,4-b]pyridin-5-yl]-5-methyl-4-(propan-2-yl)-1H-pyrazol-3-yl}-2H-indazol-2-yl)-1-phenylethan-1-ol] |
| 27 | 1.4 | COCc1nc2nn(C)cc2cc1-n1nc(-c2cccc3nn(C[C@H](O)c4ccccc4)cc23)c(C(C)C)c1C [Example 17, (1R)-2-(4-{1-[6-(methoxymethyl)-2-methyl-2H-pyrazolo[3,4-b]pyridin-5-yl]-5-methyl-4-(propan-2-yl)-1H-pyrazol-3-yl}-2H-indazol-2-yl)-1-phenylethan-1-ol] |
